How the values were obtained:
[1] = system: Mast/stem cell growth factor receptor Kit (Homo sapiens), P10721 [D816H]; conditions: Compound concentration 1000.0 nM
[2] = target: Peripheral plasma membrane protein CASK (Homo sapiens) (UniProt O14936); conditions: Compound concentration 1000.0 nM
[3] = target: Serine/threonine-protein kinase MRCK gamma (Homo sapiens) (UniProt Q6DT37); conditions: Compound concentration 1000.0 nM
[4] = target: 5-hydroxytryptamine receptor 5A (Homo sapiens) (UniProt P47898); conditions: Compound concentration 10.0 uM
Chain of 5-hydroxytryptamine receptor 5A (Homo sapiens) (P47898 whole entry): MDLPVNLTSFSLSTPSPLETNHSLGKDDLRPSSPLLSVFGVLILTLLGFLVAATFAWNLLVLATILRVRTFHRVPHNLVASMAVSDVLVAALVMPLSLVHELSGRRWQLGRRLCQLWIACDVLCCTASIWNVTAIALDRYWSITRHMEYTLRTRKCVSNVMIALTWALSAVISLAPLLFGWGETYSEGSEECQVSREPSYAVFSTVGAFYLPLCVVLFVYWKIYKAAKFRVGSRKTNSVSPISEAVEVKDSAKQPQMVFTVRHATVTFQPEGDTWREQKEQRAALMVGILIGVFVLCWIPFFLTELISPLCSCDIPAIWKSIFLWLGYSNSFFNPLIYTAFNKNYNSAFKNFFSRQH

[5] = target: Ribosomal protein S6 kinase alpha-6 (Homo sapiens) (UniProt Q9UK32); conditions: Compound concentration 1000.0 nM
[6] = target: Tyrosine-protein kinase Lck (Homo sapiens) (UniProt P06239); conditions: Compound concentration 1000.0 nM
Chain of Tyrosine-protein kinase Lck (Homo sapiens) (P06239 2-509 limits assumed): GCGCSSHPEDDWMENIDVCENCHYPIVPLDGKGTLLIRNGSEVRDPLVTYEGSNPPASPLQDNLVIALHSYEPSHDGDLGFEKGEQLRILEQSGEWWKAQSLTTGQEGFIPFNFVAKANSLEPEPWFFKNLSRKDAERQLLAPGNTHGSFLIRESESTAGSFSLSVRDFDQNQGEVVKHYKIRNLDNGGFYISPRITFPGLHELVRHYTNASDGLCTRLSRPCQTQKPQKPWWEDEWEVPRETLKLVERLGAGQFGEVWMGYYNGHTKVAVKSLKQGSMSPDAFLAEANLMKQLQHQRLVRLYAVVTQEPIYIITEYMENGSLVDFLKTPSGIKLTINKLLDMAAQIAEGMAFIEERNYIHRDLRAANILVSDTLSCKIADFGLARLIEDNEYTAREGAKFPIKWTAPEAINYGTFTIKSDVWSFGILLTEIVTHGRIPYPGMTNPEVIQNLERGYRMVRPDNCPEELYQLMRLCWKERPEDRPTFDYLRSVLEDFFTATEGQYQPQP

[7] = target: Homeodomain-interacting protein kinase 3 (Homo sapiens) (UniProt Q9H422); conditions: Compound concentration 1000.0 nM
Chain of Homeodomain-interacting protein kinase 3 (Homo sapiens) (Q9H422 whole entry, looked up): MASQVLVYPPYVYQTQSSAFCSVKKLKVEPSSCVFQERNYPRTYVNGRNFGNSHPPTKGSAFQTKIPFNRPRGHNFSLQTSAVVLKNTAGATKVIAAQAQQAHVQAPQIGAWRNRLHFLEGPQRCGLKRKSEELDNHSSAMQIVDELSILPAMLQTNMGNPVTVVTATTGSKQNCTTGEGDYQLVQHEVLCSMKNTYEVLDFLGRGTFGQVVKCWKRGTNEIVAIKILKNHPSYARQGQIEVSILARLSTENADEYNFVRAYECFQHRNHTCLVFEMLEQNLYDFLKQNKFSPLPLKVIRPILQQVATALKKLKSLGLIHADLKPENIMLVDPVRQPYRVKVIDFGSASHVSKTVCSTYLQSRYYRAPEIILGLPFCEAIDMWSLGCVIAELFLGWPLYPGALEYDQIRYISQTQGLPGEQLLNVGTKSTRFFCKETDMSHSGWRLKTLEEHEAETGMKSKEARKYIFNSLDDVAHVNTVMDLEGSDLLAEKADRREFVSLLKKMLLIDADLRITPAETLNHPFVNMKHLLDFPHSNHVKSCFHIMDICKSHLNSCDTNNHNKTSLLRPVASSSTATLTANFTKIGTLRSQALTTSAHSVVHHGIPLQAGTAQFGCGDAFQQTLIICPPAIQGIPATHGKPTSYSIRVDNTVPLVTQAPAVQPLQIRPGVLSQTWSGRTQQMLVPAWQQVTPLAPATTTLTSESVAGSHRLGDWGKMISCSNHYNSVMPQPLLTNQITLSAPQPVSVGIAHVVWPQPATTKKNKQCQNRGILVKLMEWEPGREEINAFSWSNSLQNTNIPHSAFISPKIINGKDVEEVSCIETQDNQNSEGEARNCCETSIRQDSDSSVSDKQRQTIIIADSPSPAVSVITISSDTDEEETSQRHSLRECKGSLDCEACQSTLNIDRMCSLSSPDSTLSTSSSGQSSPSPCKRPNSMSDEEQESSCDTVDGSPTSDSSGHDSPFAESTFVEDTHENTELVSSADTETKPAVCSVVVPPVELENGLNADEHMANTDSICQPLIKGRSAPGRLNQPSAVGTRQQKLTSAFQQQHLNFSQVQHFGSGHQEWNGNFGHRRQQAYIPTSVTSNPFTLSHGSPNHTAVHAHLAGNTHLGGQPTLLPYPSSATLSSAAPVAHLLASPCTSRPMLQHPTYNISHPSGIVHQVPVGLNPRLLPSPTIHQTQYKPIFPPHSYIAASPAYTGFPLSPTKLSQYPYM

[8] = target: Calcium/calmodulin-dependent protein kinase type 1D (Homo sapiens) (UniProt Q8IU85); conditions: Compound concentration 1000.0 nM
Chain of Calcium/calmodulin-dependent protein kinase type 1D (Homo sapiens) (Q8IU85 whole entry, looked up): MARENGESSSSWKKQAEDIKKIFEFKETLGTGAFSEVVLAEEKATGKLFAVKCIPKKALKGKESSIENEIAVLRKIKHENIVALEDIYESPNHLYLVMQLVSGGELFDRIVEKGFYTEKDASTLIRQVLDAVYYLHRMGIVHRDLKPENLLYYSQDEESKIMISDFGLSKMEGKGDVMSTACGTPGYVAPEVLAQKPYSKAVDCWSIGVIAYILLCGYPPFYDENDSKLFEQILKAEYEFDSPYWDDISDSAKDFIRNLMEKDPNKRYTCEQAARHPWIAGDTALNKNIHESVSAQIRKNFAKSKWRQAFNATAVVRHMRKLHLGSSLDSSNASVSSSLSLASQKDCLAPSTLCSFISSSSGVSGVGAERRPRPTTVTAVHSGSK

[9] = target: D(2) dopamine receptor (Homo sapiens) (UniProt P14416); conditions: Compound concentration 10.0 uM
Chain of D(2) dopamine receptor (Homo sapiens) (P14416 whole entry): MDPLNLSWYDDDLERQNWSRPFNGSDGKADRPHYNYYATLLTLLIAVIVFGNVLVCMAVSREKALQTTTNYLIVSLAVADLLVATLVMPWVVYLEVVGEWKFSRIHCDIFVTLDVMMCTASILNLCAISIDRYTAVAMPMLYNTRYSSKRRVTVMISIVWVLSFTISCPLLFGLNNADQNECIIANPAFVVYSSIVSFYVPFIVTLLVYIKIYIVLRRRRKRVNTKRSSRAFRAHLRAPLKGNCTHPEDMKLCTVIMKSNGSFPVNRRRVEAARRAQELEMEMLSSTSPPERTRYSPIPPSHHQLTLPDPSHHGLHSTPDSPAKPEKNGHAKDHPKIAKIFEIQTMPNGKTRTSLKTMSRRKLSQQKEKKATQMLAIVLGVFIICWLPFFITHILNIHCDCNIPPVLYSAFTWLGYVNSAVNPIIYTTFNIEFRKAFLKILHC

[10] = target: Serine/threonine-protein kinase 32C (Homo sapiens) (UniProt Q86UX6); conditions: Compound concentration 1000.0 nM
Chain of Serine/threonine-protein kinase 32C (Homo sapiens) (Q86UX6 whole entry): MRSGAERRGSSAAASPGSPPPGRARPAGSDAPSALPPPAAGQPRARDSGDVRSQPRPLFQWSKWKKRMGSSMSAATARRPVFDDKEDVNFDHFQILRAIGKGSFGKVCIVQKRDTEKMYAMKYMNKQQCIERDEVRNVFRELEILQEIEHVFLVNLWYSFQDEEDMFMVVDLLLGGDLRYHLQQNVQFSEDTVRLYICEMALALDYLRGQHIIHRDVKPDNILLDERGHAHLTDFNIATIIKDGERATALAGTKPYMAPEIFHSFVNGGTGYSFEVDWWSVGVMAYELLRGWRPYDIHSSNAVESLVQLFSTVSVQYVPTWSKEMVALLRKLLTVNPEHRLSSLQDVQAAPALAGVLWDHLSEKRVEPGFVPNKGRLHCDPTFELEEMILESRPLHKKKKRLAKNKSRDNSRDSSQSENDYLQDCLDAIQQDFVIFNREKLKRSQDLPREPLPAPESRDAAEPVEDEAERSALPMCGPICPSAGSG

[11] = target: T1, Serine/threonine-protein kinase BRSK1 (Homo sapiens) (UniProt Q8TDC3); conditions: Compound concentration 1000.0 nM
T1 sequence (whole entry): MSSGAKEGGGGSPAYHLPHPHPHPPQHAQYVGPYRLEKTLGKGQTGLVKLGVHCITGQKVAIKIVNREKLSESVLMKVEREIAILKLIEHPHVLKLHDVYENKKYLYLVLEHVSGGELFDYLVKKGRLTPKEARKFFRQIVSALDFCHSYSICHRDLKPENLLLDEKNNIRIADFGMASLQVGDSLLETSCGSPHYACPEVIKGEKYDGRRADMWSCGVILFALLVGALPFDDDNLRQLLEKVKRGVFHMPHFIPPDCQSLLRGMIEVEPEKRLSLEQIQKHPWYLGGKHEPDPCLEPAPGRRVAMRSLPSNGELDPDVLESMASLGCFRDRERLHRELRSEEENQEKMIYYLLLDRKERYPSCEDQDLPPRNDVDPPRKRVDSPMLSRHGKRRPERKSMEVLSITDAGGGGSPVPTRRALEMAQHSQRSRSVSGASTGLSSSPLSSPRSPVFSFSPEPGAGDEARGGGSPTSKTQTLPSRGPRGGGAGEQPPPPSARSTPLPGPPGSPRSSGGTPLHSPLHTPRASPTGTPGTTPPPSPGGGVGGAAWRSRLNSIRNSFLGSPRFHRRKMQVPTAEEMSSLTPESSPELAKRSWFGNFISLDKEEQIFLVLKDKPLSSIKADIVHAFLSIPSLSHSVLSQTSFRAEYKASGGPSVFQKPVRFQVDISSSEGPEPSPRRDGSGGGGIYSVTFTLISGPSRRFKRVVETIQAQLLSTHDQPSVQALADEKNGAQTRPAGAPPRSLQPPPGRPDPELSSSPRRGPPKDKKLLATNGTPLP

[12] = target: Cyclin-dependent kinase 15 (Homo sapiens) (UniProt Q96Q40); conditions: Compound concentration 1000.0 nM
Chain of Cyclin-dependent kinase 15 (Homo sapiens) (Q96Q40 whole entry): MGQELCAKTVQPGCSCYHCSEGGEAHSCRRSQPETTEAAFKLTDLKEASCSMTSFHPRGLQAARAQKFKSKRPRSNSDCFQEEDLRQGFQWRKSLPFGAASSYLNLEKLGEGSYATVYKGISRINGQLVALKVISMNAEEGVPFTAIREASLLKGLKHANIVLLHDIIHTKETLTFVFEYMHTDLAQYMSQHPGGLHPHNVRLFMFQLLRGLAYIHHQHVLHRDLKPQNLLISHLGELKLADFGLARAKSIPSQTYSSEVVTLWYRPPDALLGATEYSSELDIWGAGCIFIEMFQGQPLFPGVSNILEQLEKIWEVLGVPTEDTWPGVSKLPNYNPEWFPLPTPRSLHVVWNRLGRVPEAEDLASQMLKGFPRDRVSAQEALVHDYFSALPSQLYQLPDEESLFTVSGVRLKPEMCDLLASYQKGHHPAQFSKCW

[13] = system: Hepatocyte growth factor receptor (Homo sapiens), P08581 [M1250T]; conditions: Compound concentration 1000.0 nM
[14] = target: T2, Inhibitor of nuclear factor kappa-B kinase subunit epsilon (Homo sapiens) (UniProt Q14164); conditions: Compound concentration 1000.0 nM
T2 sequence (whole entry): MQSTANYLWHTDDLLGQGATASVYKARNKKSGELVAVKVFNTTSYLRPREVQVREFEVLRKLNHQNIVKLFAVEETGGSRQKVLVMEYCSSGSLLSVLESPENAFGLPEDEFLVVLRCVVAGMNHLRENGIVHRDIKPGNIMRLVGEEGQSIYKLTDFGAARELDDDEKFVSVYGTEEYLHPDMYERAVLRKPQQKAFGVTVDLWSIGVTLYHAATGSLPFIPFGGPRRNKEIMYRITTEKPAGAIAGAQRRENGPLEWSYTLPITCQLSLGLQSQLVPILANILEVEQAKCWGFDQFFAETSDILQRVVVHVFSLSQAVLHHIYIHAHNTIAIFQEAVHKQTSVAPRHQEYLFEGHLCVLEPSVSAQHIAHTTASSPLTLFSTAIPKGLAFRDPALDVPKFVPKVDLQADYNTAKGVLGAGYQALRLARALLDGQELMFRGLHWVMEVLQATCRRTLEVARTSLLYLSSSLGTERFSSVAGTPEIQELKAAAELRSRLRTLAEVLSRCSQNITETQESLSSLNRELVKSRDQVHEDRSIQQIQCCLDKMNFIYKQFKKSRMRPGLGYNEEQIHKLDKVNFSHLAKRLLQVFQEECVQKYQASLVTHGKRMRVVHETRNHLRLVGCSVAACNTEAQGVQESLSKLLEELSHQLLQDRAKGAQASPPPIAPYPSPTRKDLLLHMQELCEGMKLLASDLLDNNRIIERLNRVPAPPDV

[15] = target: Fibroblast growth factor receptor 4 (Homo sapiens) (UniProt P22455); conditions: Compound concentration 1000.0 nM
[16] = target: Tyrosine-protein kinase receptor Tie-1 (Homo sapiens) (UniProt P35590); conditions: Compound concentration 1000.0 nM
[17] = target: Activated CDC42 kinase 1 (Homo sapiens) (UniProt Q07912); conditions: Compound concentration 1000.0 nM
Chain of Activated CDC42 kinase 1 (Homo sapiens) (Q07912 whole entry, looked up): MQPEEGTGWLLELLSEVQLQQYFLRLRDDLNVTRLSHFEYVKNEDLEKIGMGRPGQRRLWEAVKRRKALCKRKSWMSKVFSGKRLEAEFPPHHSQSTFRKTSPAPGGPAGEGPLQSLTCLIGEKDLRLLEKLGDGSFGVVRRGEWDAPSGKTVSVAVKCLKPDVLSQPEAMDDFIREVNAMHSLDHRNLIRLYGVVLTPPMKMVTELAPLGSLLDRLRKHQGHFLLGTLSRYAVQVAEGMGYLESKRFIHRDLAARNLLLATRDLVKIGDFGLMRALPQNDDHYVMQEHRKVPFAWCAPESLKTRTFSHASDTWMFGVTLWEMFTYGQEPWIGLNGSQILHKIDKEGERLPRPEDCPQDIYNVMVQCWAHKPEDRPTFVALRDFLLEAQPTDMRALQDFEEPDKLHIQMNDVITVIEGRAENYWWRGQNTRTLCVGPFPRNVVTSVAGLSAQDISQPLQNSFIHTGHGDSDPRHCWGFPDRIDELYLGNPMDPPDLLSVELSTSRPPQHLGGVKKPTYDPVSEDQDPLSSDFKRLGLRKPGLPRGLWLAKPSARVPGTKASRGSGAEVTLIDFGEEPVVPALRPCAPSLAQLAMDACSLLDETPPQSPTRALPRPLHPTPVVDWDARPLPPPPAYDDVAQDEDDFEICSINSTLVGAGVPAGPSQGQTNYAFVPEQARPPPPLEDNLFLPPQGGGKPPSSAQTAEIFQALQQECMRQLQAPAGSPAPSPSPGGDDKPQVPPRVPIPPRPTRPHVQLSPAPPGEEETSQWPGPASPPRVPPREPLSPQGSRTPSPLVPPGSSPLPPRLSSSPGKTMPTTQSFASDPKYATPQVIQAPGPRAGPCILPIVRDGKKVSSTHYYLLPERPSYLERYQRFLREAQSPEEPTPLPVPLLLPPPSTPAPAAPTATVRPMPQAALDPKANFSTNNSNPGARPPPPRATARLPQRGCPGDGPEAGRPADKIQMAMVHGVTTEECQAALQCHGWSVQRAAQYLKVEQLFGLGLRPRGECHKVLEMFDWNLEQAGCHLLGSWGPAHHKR

[18] = target: Serine/threonine-protein kinase mTOR (Homo sapiens) (UniProt P42345); conditions: Compound concentration 1000.0 nM

CN(C)C(=O)Cn1cc(-c2nc(C3(c4ccc(-c5cnc(N)nc5)cc4)CC3)no2)cn1 [BI 0153]
inactive: residual activity [1] 85% | residual activity [2] 76% | residual activity [3] 82% | inhibition [4] 0.23% | residual activity [5] 100% | residual activity [6] 83% | residual activity [7] 71% | residual activity [8] 100% | inhibition [9] 16.1% | residual activity [10] 100% | residual activity [11] 93% | residual activity [12] 100% | residual activity [13] 100% | residual activity [14] 57% | residual activity [15] 100% | residual activity [16] 98% | residual activity [17] 96% | residual activity [18] 91%

CN(C)C(=O)Cn1cc(-c2nc([C@@](C)(c3ccc(-c4cnc(N)nc4)cc3)C3CC3)no2)cn1 [BI 665915]
inactive: residual activity [1] 100% | residual activity [2] 82% | residual activity [3] 87% | inhibition [4] -4.97% | residual activity [5] 100% | residual activity [6] 86% | residual activity [7] 97% | residual activity [8] 100% | inhibition [9] 13.6% | residual activity [10] 88% | residual activity [11] 98% | residual activity [12] 94% | residual activity [13] 93% | residual activity [14] 86% | residual activity [15] 88% | residual activity [16] 90% | residual activity [17] 91% | residual activity [18] 100%
